{"source": "patent US9624161B2", "about": "(priority 2009, dated 2017)", "key": {"[1]": {"system": "intact and orchiectomized (ORX) male Sprague-Dawley rats", "assay": "Suppression of LH and testosterone in intact and ORX rats, 14-day subcutaneous dosing", "format": "in vivo, rat", "details": "for Serum testosterone: LLOQ 0.08 ng/mL", "procedure": "An in vivo dose-response study was conducted to evaluate the effect of Compound IV on LH suppression in intact and orchiectomized (ORX) male rats.\nMale Sprague-Dawley rats weighing approximately 200 g were maintained on a 12-h light/dark cycle with food (2016 Teklad Global 16% Protein Rodent Diet, Harlan, Madison, Wis.) and water available ad libitum. The animal protocol was reviewed and approved by the Institutional Animal Care and Use Committee of the University of Tennessee.\nThe test article for this study was weighed and dissolved in 10% DMSO (Fisher) diluted with PEG 300 (Acros Organics, NJ) to prepare the appropriate dose formulations. For this study, sixty (60) male Sprague-Dawley rats were randomized by body weight, and assigned to one of the twelve treatment groups (n=5 animals/group). The animals were housed in groups of 2 to 3 animals per cage. Control groups (intact and orchidectomized (ORX)) were administered vehicle daily. […]\nAfter a 14-day dosing regimen, the animals were sacrificed under anesthesia (ketamine/xylazine, 87:13 mg/kg) and body weights were recorded. In addition, ventral prostate, seminal vesicles, and levator ani muscle were removed, cleaned of extraneous tissue, and individually weighed. Organ weight were normalized to body weight and expressed as a percentage of intact control. Blood was collected from the abdominal aorta under isoflurane anesthesia and allowed to clot. Serum was separated by centrifugation and stored at −80° C. prior to determination of serum hormone levels. Serum luteinizing hormone (LH) and follicle stimulating hormone (FSH) concentrations were determined by the Rat Pituitary Luminex Assay (Millipore, Billerica, Mass.) according to manufacturer's directions. The lower limit of quantitation for this assay was 3.2 pg/mL for LH and 32 pg/mL for FSH. Testosterone was measured by a Testosterone EIA (Alpco Diagnostics, Salem, N.H.) with a LLOQ of 0.08 ng/mL. Serum hormone values below the lower limit of quantitation (BLOQ) were omitted from analysis of group means. Therefore, the reported value for LH and T in the groups with samples BLOQ is higher than the actual value. This method of analysis provided the most conservative estimate of LH and T suppression. Fisher's Least Significant Difference test was used to compare individual dose groups to the intact and ORX vehicle control groups. Significance was defined a priori as a P-value <0.05."}, "[2]": {"biological_target": "T1, retinoid X receptor (RXR-α) (Homo sapiens, UniProt P19793)", "T1 construct": "expressed in transfected cells", "T1 sequence (P19793 whole entry, canonical isoform)": "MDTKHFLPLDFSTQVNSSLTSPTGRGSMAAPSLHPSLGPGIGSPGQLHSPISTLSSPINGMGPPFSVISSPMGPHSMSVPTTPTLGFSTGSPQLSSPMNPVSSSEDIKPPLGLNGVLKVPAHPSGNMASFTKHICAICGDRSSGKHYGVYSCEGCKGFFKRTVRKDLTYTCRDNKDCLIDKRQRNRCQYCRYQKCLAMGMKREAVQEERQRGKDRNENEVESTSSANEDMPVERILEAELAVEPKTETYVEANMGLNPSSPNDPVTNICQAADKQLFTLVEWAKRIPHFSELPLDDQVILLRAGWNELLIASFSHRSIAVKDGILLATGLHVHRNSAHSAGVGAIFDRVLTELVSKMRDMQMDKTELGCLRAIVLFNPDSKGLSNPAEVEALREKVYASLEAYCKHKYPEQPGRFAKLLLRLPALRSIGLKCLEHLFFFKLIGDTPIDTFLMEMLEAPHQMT", "assay": "Nuclear receptor cross-reactivity transcriptional activation assay", "format": "cell-based", "details": "agonist and antagonist modes", "excerpt": "(§1) Compound IV was screened for cross-reactivity against rat isoforms of glucocorticoid receptor (GR), mineralocorticoids receptor (MR), progesterone receptor (PR), androgen receptor (AR) and human isoforms of farnesoid X receptor (FXR), liver X receptor (LXR), peroxisome proliferator-activated receptors (PPAR-α and PPAR-γ), and retinoid X receptor (RXR-α) in both agonist and antagonist modes in transcriptional activation assays."}, "[3]": {"biological_target": "T2, mineralocorticoids receptor (MR) (Rattus norvegicus, UniProt P22199)", "T2 construct": "expressed in transfected cells", "T2 sequence (P22199 whole entry)": "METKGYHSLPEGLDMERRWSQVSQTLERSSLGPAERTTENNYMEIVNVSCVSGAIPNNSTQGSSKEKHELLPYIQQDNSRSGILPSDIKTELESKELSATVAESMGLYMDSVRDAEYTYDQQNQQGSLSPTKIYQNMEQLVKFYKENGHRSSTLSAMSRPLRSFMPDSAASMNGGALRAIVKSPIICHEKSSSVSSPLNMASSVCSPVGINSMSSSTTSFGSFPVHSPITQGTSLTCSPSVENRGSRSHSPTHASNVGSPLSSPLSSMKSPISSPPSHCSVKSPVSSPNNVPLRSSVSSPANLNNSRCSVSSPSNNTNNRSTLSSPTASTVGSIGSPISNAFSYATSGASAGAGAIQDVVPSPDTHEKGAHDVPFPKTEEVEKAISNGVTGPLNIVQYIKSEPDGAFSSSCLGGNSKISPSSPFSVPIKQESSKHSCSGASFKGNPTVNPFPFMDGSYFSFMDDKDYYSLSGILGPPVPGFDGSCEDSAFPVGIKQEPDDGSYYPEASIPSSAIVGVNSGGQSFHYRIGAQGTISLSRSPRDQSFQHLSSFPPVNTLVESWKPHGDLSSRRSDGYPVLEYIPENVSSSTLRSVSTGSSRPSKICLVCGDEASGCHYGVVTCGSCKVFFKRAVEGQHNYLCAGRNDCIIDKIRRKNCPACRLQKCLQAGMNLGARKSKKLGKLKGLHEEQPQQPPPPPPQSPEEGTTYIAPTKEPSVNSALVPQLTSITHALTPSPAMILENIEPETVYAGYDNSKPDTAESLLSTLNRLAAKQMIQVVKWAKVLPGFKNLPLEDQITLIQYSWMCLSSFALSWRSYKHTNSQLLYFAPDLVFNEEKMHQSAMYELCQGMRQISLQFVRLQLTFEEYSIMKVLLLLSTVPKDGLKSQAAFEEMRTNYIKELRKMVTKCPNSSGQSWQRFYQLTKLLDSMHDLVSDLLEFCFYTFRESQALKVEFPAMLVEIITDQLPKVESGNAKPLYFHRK", "assay": "Nuclear receptor cross-reactivity transcriptional activation assay", "format": "cell-based", "details": "agonist and antagonist modes", "excerpt": "as §1"}, "[4]": {"biological_target": "T3, progesterone receptor (PR) (Rattus norvegicus, UniProt Q63449)", "T3 construct": "expressed in transfected cells", "T3 sequence (Q63449 whole entry)": "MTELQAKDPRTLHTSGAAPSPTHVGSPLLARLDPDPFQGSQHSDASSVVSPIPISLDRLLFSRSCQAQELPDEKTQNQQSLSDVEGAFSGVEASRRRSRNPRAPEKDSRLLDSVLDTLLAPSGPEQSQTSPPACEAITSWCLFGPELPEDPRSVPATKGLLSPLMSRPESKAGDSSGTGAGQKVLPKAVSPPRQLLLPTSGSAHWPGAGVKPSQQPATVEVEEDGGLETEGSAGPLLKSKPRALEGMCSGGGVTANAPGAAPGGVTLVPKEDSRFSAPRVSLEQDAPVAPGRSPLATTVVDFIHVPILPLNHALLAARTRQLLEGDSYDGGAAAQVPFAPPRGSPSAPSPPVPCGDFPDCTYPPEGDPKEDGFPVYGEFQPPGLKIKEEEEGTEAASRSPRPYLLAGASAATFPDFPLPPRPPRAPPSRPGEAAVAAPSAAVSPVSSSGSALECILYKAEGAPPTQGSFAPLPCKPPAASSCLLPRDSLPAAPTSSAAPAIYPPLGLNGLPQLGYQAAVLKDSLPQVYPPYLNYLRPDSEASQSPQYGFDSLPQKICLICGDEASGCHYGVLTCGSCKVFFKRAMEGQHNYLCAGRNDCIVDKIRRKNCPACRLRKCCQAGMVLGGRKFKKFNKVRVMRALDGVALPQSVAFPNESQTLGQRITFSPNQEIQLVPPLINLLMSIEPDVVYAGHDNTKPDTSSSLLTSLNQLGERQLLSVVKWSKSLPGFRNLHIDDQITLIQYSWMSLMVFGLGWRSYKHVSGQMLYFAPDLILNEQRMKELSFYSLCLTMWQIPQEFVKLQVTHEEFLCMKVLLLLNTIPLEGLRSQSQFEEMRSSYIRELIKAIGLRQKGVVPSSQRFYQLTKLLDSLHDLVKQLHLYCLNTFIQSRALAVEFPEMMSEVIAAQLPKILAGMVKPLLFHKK", "assay": "Nuclear receptor cross-reactivity transcriptional activation assay", "format": "cell-based", "details": "agonist and antagonist modes", "excerpt": "as §1"}, "PPAR-γ": {"biological_target": "T4, PPAR-γ (Homo sapiens, UniProt P37231)", "T4 construct": "expressed in transfected cells", "T4 sequence (P37231 whole entry)": "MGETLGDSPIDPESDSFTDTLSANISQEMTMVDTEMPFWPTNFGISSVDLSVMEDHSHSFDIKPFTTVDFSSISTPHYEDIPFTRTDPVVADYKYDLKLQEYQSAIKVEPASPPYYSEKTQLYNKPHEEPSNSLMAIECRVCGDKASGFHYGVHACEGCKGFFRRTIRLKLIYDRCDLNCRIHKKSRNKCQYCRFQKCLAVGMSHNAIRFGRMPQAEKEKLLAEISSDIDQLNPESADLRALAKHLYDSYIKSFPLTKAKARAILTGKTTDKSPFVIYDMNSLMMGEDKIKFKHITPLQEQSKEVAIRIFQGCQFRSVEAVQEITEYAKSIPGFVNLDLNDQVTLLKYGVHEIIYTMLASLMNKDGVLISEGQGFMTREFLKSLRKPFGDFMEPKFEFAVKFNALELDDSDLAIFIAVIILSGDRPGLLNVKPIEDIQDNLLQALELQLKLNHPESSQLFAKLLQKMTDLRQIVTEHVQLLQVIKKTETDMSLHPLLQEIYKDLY", "assay": "Nuclear receptor cross-reactivity transcriptional activation assay", "format": "cell-based", "details": "agonist and antagonist modes", "excerpt": "as §1"}, "[5]": {"biological_target": "T5, glucocorticoid receptor (GR) (Rattus norvegicus, UniProt P06536)", "T5 construct": "expressed in transfected cells", "T5 sequence (P06536 1-795)": "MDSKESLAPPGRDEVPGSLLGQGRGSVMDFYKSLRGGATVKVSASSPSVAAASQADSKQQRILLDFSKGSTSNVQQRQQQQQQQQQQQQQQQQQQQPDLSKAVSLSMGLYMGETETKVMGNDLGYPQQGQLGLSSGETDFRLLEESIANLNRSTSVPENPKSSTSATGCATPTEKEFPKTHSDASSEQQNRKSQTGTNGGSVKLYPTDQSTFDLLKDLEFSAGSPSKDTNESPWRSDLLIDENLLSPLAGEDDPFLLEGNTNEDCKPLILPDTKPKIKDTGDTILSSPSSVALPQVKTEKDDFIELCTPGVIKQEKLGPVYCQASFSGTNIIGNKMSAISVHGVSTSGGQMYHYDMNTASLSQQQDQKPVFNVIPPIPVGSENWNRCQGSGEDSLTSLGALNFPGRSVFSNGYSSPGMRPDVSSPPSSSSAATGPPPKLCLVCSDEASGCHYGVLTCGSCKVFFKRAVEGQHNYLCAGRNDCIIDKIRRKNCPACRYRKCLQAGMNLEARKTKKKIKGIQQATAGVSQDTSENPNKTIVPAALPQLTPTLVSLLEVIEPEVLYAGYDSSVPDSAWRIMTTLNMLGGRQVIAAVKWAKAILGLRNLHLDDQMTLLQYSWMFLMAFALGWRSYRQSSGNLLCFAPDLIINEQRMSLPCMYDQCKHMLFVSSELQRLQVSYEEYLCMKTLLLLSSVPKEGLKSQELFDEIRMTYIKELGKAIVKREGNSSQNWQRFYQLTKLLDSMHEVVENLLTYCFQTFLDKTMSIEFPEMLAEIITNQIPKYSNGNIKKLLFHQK", "assay": "Nuclear receptor cross-reactivity transcriptional activation assay", "format": "cell-based", "excerpt": "as §1"}, "androgen receptor (AR)": {"biological_target": "T6, androgen receptor (AR) (Rattus norvegicus, UniProt P15207)", "T6 construct": "expressed in transfected cells", "T6 sequence (P15207 whole entry S389L)": "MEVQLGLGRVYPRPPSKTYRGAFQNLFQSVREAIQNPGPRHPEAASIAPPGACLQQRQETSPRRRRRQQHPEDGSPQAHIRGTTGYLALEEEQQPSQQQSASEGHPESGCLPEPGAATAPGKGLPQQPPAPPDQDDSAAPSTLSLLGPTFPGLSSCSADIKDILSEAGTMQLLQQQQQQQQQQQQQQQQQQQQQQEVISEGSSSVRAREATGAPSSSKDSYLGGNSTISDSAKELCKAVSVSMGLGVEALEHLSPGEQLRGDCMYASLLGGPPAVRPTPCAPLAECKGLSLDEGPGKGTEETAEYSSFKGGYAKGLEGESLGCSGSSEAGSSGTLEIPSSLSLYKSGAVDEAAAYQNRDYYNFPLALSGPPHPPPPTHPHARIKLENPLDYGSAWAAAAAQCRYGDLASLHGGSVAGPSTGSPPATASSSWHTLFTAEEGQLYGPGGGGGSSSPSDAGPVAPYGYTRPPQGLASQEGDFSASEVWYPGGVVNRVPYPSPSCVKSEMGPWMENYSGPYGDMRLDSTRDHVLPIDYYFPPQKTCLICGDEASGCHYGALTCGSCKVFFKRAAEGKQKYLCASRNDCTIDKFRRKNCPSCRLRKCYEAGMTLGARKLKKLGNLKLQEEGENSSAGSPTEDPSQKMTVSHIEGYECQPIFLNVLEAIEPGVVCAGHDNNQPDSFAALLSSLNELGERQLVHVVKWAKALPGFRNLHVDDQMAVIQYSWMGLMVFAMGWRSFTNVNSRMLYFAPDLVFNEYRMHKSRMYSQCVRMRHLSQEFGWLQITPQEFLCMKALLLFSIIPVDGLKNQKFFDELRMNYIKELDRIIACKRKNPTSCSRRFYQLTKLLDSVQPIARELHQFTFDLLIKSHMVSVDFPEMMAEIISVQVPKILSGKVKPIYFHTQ", "assay": "Nuclear receptor cross-reactivity transcriptional activation assay", "format": "cell-based", "excerpt": "as §1"}, "PPAR-α": {"biological_target": "T7, PPAR-α (Homo sapiens, UniProt Q07869)", "T7 construct": "expressed in transfected cells", "T7 sequence (Q07869 whole entry)": "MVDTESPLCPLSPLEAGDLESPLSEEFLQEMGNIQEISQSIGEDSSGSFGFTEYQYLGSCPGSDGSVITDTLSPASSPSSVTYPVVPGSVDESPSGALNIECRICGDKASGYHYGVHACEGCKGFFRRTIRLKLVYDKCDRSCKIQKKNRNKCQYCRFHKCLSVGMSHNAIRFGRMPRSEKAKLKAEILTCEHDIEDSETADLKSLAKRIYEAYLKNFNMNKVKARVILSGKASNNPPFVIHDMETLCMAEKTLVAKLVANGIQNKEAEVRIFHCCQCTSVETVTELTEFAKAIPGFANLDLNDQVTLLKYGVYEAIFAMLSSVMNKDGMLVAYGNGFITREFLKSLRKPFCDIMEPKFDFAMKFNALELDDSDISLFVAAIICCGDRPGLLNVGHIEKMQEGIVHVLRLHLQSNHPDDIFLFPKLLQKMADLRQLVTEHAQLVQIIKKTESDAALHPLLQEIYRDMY", "assay": "Nuclear receptor cross-reactivity transcriptional activation assay", "format": "cell-based", "details": "agonist and antagonist modes", "excerpt": "as §1"}, "[6]": {"biological_target": "T8, farnesoid X receptor (FXR) (Homo sapiens, UniProt Q96RI1)", "T8 construct": "expressed in transfected cells", "T8 sequence (Q96RI1 whole entry)": "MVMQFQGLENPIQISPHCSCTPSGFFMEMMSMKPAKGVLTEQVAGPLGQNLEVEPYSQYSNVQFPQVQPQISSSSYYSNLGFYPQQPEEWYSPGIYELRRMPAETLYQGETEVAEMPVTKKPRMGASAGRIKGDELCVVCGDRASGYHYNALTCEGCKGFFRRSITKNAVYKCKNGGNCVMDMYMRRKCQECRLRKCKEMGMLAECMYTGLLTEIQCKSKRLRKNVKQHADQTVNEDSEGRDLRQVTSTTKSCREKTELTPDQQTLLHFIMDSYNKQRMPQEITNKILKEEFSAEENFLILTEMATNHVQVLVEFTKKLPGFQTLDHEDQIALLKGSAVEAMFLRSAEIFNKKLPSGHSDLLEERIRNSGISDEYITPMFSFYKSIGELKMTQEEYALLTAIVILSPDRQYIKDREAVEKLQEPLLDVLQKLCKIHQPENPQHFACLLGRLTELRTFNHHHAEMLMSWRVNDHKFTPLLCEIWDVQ", "assay": "Nuclear receptor cross-reactivity transcriptional activation assay", "format": "cell-based", "details": "agonist and antagonist modes", "excerpt": "as §1"}, "[7]": {"system": "human peripheral blood lymphocytes", "assay": "Chromosomal aberrations in human peripheral blood lymphocytes in vitro", "format": "cell-based", "details": "concentrations up to 200 μM", "excerpt": "Compound IV was well-tolerated by rats and dogs after single and repeated oral administration (up to 28 days)."}, "[8]": {"system": "treatment naïve male Cynomolgus monkeys", "assay": "Suppression and recovery of androgen levels in intact male monkeys, 30 mg/kg oral for 7 days", "format": "in vivo, Cynomolgus monkey", "set-up": "Circulating androgen level (mean±SEM) / Circulating androgen level after recovery: unit not given here", "procedure": "The effect of Compound IV on suppression and recovery of testosterone levels in intact male monkeys was evaluated in conjunction with an oral pharmacokinetic study. Three treatment naïve male Cynomolgus monkeys (2 to 3 years old) were administered Compound IV at 30 mg/kg daily by oral gavage for 7 consecutive days. Blood samples were collected and divided into serum and plasma for testosterone and Compound IV quantitative measurements, respectively."}}, "note": "“Also recorded” adds a separate entry of the source.", "data": [{"molecule": "O=C(c1ccc(O)c(F)c1)N(c1ccc(O)cc1)c1ccc(F)cc1", "note": "[Compound IV, 3-fluoro-N-(4-fluorophenyl)-4-hydroxy-N-(4-hydroxyphenyl)benzamide]", "values": [{"measurement": "Serum testosterone", "setting": "[1]; Intact rats, 10 mg/kg per day s.c., 14 days", "result": "BLOQ"}, {"measurement": "Serum testosterone", "setting": "[1]; Intact rats, 30 mg/kg per day s.c., 14 days", "result": "BLOQ"}, {"measurement": "Serum testosterone", "setting": "[1]; ORX rats, all dose groups (0.3-30 mg/kg/day)", "result": "BLOQ"}, {"measurement": "Suppression of serum testosterone", "setting": "[1]; intact male rats, 3, 10 and 300 mg/kg, after 24 h, 72 h and 168 h (FIG. 9)", "result": "Rapid and potent suppression"}, {"measurement": "Doses with significant reduction of FSH levels", "setting": "[1]; intact rats, 14 days s.c.", "result": "≥ 10", "unit": "mg/kg/day"}, {"measurement": "Doses with significant reduction of testosterone levels", "setting": "[1]; intact rats, 14 days s.c.", "result": "≥ 3", "unit": "mg/kg per day"}, {"measurement": "Agonist or antagonist activity at RXR-α", "setting": "[2]", "result": "did not display any agonist or antagonist activity"}, {"measurement": "Agonist or antagonist activity at MR", "setting": "[3]", "result": "did not display any agonist or antagonist activity"}, {"measurement": "Agonist or antagonist activity at PR", "setting": "[4]", "result": "did not display any agonist or antagonist activity"}, {"measurement": "Agonist or antagonist activity at PPAR-γ", "setting": "PPAR-γ", "result": "did not display any agonist or antagonist activity"}, {"measurement": "Cross-reaction with glucocorticoid receptor (GR)", "setting": "[5]; FIG. 12A", "result": "does not; also recorded: did not"}, {"measurement": "Agonist or antagonist activity at GR", "setting": "[5]; agonist and antagonist modes", "result": "did not display any agonist or antagonist activity"}, {"measurement": "Cross-reaction with androgen receptor (AR)", "setting": "androgen receptor (AR); FIG. 12B", "result": "does not; also recorded: did not"}, {"measurement": "Agonist or antagonist activity at AR", "setting": "androgen receptor (AR); agonist and antagonist modes", "result": "did not display any agonist or antagonist activity"}, {"measurement": "Agonist or antagonist activity at PPAR-α", "setting": "PPAR-α", "result": "did not display any agonist or antagonist activity"}, {"measurement": "Agonist or antagonist activity at FXR", "setting": "[6]", "result": "did not display any agonist or antagonist activity"}, {"measurement": "Structural or numeric chromosomal aberrations", "setting": "[7]", "result": "did not induce"}, {"measurement": "Circulating androgen level after recovery", "setting": "[8]; 30 mg/kg daily oral 7 days, then 18-day drug-free recovery", "result": "1757.7±369.5"}, {"measurement": "Decrease of circulating androgen levels compared to baseline", "setting": "[8]; 30 mg/kg daily oral, 7 days, three monkeys", "result": "up to 47%"}, {"measurement": "Circulating androgen level (mean±SEM)", "setting": "[8]; 30 mg/kg daily oral, Day 2", "result": "997±104"}, {"measurement": "Circulating androgen level (mean±SEM)", "setting": "[8]; 30 mg/kg daily oral, Day 6", "result": "852±136"}]}]}
